Experimental data as given in article PMC9901937, “Selective androgen receptor degrader (SARD) to overcome antiandrogen resistance in castration-resistant prostate cancer” (eLife, 2023).

Target: T1, androgen receptor (AR) (Homo sapiens, UniProt P10275)
T1 construct: AR from LNCaP cytosol (LBD site)
T1 sequence (P10275 1-920): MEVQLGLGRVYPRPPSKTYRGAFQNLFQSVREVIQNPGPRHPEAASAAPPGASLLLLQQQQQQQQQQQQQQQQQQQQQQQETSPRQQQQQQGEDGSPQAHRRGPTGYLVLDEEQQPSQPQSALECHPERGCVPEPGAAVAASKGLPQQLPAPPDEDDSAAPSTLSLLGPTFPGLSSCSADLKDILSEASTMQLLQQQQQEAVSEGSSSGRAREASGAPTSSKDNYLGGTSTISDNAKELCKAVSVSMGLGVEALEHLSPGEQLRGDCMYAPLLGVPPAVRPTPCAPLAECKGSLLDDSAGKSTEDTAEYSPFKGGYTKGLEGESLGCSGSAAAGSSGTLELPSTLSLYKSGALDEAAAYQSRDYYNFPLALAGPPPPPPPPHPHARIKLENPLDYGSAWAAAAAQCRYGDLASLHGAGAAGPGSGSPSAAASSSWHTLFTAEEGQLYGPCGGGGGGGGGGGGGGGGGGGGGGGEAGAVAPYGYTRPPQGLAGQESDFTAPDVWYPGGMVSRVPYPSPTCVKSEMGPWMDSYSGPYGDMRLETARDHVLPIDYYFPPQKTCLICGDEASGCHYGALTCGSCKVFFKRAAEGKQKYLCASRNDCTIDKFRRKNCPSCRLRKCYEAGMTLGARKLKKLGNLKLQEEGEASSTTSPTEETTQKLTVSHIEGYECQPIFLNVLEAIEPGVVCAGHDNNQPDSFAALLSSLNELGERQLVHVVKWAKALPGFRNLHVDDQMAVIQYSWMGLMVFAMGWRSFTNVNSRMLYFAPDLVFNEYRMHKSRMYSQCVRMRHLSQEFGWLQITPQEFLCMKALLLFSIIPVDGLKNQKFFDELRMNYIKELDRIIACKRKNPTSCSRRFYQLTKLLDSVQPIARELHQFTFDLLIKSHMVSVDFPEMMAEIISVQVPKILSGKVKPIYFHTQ
Experiment: [3H]DHT competitive radioligand binding; also BLI and FP on AR LBD, and SPR (KD […]) and BLI on AR AF1 ([…] aa)

IC50: 0.0633 µM
Structure (SMILES): Cc1noc(C)c1COc1ccc(C(=O)Nc2nc(-c3cccs3)cs2)cc1 [Z15, 4-[(3,5-Dimethyl-4-isoxazolyl)methoxy]-N-4-[(2-thienyl)-2-thiazole]-benzamide]
